Data on three compounds can be found in patent publication US9193720B2, “Pyridin-3-yl acetic acid derivatives as inhibitors of human immunodeficiency virus replication” (priority 2014, dated 2015).

The assay deals with NL-RLuc virus. In words: Inhibition of HIV Replication (NL-RLuc luciferase reporter virus in MT-2 cells). In kind it is cell-based. The settings on record: Human immunodeficiency virus 1, MT2, 120 h. A digest of the protocol:
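Replication-competent virus with Renilla luciferase in place of part of nef, made in 293T cells and titered in MT-2 cells. Infected MT-2 cells grown 5 days with serially diluted compound in RPMI 1640/10% FBS, 10 mM HEPES pH 7.55. Luciferase read-out; EC50 from median effect equation, at least 2 experiments.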
On the technique in general: Reporter assays use an easily measured gene product as a stand-in for the process of interest.

Regarding `Cc1nc(C)c([C@H](OC(C)(C)C)C(=O)O)c(N2CCC(C)(C)CC2)c1-c1ccc(OCCc2cc(F)ccc2F)cc1` [Example 25, (S)-2-(tert-butoxy)-2-(5-(4-(2,5-difluorophenethoxy)phenyl)-4-(4,4-dimethylpiperidin-1-yl)-2,6-dimethylpyridin-3-yl)acetic acid], a half-maximal response (EC50) required 3 nM.

For the compound `Cc1nc(C)c([C@H](OC(C)(C)C)C(=O)O)c(N2CCC(C)(C)CC2)c1-c1ccc(OCc2cccc(F)c2)cc1` [Example 7, (S)-2-(tert-butoxy)-2-(4-(4,4-dimethylpiperidin-1-yl)-5-(4-((3-fluorobenzyl)oxy)phenyl)-2,6-dimethylpyridin-3-yl)acetic acid], the EC50 – broadly, the concentration giving half of the maximal effect – was found to be 9 nM.

As for `Cc1nc(C)c([C@H](OC(C)(C)C)C(=O)O)c(N2CCC(C)(C)CC2)c1-c1ccc(OCCc2ccc(C#N)cc2)cc1` [Example 18, (S)-2-(tert-Butoxy)-2-(5-(4-(4-cyanophenethoxy)phenyl)-4-(4,4-dimethylpiperidin-1-yl)-2,6-dimethylpyridin-3-yl)acetic acid], the EC50 amounted to 2 nM.
